| SMILES | melting point |
| --- | --- |
| CCc1cc(I)c(CC)cc1I | 68 to 69 °C |
| CCC(=O)N(CC)c1cccc(-c2ccnc3c(C(=O)c4ccco4)cnn23)c1 | 165 to 167 °C |
| CCOC(=O)c1cn2c3c(c(F)c(F)c(F)c3c1=O)C(C(=O)OC(C)(C)C)(C(=O)OC(C)(C)C)CN2C | 169 to 173 °C |
| COC(=O)CCc1cc(C(=O)c2cccc(C(=O)OC)n2)ccc1OC | 97 to 98 °C |
| O=C1C2=NCCCN2c2cc(Cl)ccc21 | 164 to 167 °C |
| COc1cccc(C(=O)N2CCc3cc(O)c(OC)cc3C2)c1 | 141 to 142 °C |
| Cc1cc(Br)cnc1CCCCNc1ncc(Cc2ccc(F)cc2)c(=O)[nH]1 | 172 to 173 °C |
| N#CC(C(N)=O)c1ccc(F)c(Cl)c1 (centres undefined) | 156 to 157 °C |
| c1csc(-c2nc3ccccc3nc2OC2CCC2)c1 | 103 °C |
| COc1ccc(C2(Cn3ccn(Cc4ccccc4)c3=O)CC2)cc1OC | 110 °C |
| COc1cc(N2CCCN(C[C@@H](C)O)CC2)ccc1Nc1ncc2ccc(-c3ccccc3N(C)S(C)(=O)=O)n2n1 | 93 to 99 °C |
| CS(=O)Cc1ccc2oc([N+](=O)[O-])c(-c3ccccc3)c2c1 (centres undefined) | 162 to 165 °C |
| CC(=O)C1CNCc2c1[nH]c1cnc3ccccc3c21 (centres undefined) | 218 to 221 °C |
| C=CC(=O)NC(CCC(=O)O)C(=O)O (centres undefined) | 125 to 127 °C |
| COCCOc1cc2ncnc(NC3=CC(=O)C(Oc4cccnc4)=CC3=O)c2cc1OC | 189 to 190 °C |
| Cc1cc(C)c2c(c1O)C(NCc1cc(C(C)(C)C)c(O)c(C(C)(C)C)c1)CC2 (centres undefined) | 154 to 155 °C |
| CC(=O)Nc1ccc(-c2cc(-c3c(-c4cccc(C)n4)nc4ccccn34)ccn2)cc1 | 257 °C |
| CCCCC1=NC2(CCCC2)C(=O)N1Cc1ccc(-c2ccccc2S(=O)(=O)Nc2noc(C)c2C)c(CCC)c1 | 64 to 66 °C |
| Cc1cc2c(-c3ccccc3)c(CN)n(C)c(=O)c2cc1C | 163 to 165 °C |
| CCOC(=O)c1ccc(NC(=O)CC(c2ccc(Cl)cc2)c2ccc(Cl)cc2)cc1 | 152 to 155 °C |
| CNC(=O)c1ccccc1Nc1nc(Nc2cc3c(cc2OC)CCN(CC(=O)N(C)C)CC3)ncc1Br | 225 °C |
| CN1C(C(=O)Nc2ccccc(O)c2=O)=C(O)c2ccccc2S1(=O)=O | 294 to 296 °C |
| O=C1C(c2ccccc2)=C(c2ccccc2)C(=O)N1Cc1cccc(F)c1 | 107 to 108 °C |
| CC(C)C(=O)c1cn(C)cc(-c2cccc(C(F)(F)F)c2)c1=O | 104 to 105 °C |
| O=C1CCCN1c1cc(-c2ccnc(Nc3cccc(Cl)c3)n2)ccn1 | 165 to 166 °C |

| SMILES | melting point |
| --- | --- |
| CN1C(=O)[C@H](NC(=O)CCc2ccccc2C(F)(F)F)N=C(c2ccccc2)c2ccccc21 | 110 to 113 °C |
| CC(C)Cn1cnc2c(N)nc3ccc(-c4ccsc4)cc3c21 | 235 to 236 °C |
| CCc1c(NC(=O)c2ccc(Br)cc2)ccc2cc(CO)cnc12 | 202 to 204 °C |
| CC(C)(C)c1cc(CCc2ccccc2NC(=O)N2CCC(N3CCCCC3)CC2)cc(C(C)(C)C)c1O | 64 to 67 °C |
| COc1ccccc1N1CCN(Cc2ccc(NC(=O)C3=Cc4cc(-c5ccc(C)cc5)ccc4CC3)cc2)CC1 | 202 to 205 °C |
| O=c1ccn(CCO)c(C(O)c2ccc3c(c2)OCO3)c1OCc1ccccc1 (centres undefined) | 195 to 196 °C |
| CC(=O)NC[C@H]1CN(c2ccc(-n3nccc3-c3ccncc3)c(F)c2)C(=O)O1 | 74.5 to 76.3 °C |
| CC(C)(C)N(NC(=O)c1ccccc1)C(=O)c1ccncc1 | > 210 °C |
| CC(=O)N1Cc2c(-c3noc(C4CC4)n3)ncn2-c2ccccc21 | 187 to 188 °C |
| COc1ccc(C2=NN(CC(=O)O)C(=O)[C@H]3CC=CC[C@@H]23)cc1OC (relative stereo) | 178 to 180 °C |
| Cc1cc(C)c(C=O)c(O)c1C | 74 to 75.5 °C |
| CCCCC1(CC(=O)N(CC)CC)C(=O)N(c2ccccc2)N(c2ccccc2)C1=O | 80.5 to 82 °C |
| CC(C)c1cc(O)c2c(c1)OC(C)(C)C1=C2CN(CC(=O)NC(N)=O)CC1 | 164 to 166 °C |
| CC(=O)Oc1nc2c(N)ncnc2n1Cc1ccccc1 | 189 to 191 °C |
| CS(=O)(=O)c1ccc(C2=C(Br)C(=O)C3(CCCC3)O2)cc1 | 127 to 128 °C |
| CNC(=C[N+](=O)[O-])NCCSCc1ncccc1Cl | 166 °C |
| OCC1Cc2c(c(Cl)cc3c(-c4ccccc4F)noc23)O1 (centres undefined) | 136 to 139 °C |
| Cc1nc(-c2cc(Cl)ccc2Cl)n2c1nnc1ccc(F)cc12 | 165 to 168 °C |
| Clc1[nH]c2ccccc2c1Sc1ccccc1 | 98 to 99 °C |
| CCCCCC/C=C/c1cccc(CCC(COC(C)=O)(COC(C)=O)NC(C)=O)c1 | 84 to 86 °C |
| CCCCC(=O)N(Cc1ccc(-c2ccccc2S(=O)(=O)N=CN(C)C)cc1)C(C#N)C(=O)OCC (centres undefined) | 130 to 132 °C |
| CC(c1oc2ccccc2c(=O)c1-c1cc(F)cc(F)c1)n1cnc2c(N)ncnc21 (centres undefined) | 267 to 269 °C |
| CC(c1cc(F)ccc1O)c1cc(Cl)cc(C(C)c2cc(F)ccc2O)c1O (centres undefined) | 224 °C |
| O=C(O)c1cc(-c2ccccc2Cl)c[nH]c1=O | 299 to 303 °C |

Results, then the compound that gave them:

| melting point | SMILES |
| --- | --- |
| 204 to 206 °C | CCOC(=O)c1ncc2[nH]c3ccc(I)cc3c2c1COC |
| 150 to 152 °C | ONCc1ccc2c(c1)Cc1ccccc1-2 |
| 325 to 327 °C | CC1=Nc2c3cc(C(=O)O)nc-3ccn2C1 |
| 115 °C | CC(C)Cc1ccc(C(C)COC(=O)c2cc(O)c3c(c2)C(=O)c2cccc(O)c2C3=O)cc1 (centres undefined) |
| 129 to 132 °C | CN(C)Cc1ccc(CSCCNc2ncc(Cc3ccn(C)c(=O)c3)c(=O)[nH]2)o1 |
| 138 to 139 °C | COCC(C)Oc1cc(Oc2ccc(S(C)(=O)=O)nc2)cc2cc(C3=NCC(CCO)S3)[nH]c12 (centres undefined) |
| 90 to 91 °C | CC(C)(C)OC(=O)Nc1ccc2ccccc2c1Br |
| 105 to 110 °C | COc1cc(CC(=O)CCNCCOc2ccc(C(=O)O)cc2OC)ccc1NC(=O)Nc1ccccc1F |
| 154 to 156 °C | CC(C)CC(Sc1ccccc1)c1c(O)cc(-c2ccccc2)oc1=O (centres undefined) |
| 86 to 90 °C | c1ccc(CC[C@H]2CN(Cc3ccccc3)CCN2Cc2ccccc2)cc1 |
| 289 to 290 °C | CC(C)c1cccc(C(C)C)c1NC(=O)C1c2ccccc2COc2ccc(C(=O)O)cc21 (centres undefined) |
| 219 to 221 °C | N#Cc1nn(C2CCCC2)c2nc(-c3ccncc3)nc(N)c12 |
| 152 to 154 °C | CCOC(=O)c1cc(-c2ccc(Br)cc2)c(=O)n(Cc2ccc(Cl)cc2Cl)c1 |
| 74 to 75 °C | O=C(CCc1ccccc1)C(Cc1ccccc1)C(=O)CCc1ccccc1 |
| 177 °C | Cc1ccc(C(C)N(O)C(=O)c2ccc(S(C)(=O)=O)cc2)o1 (centres undefined) |
| 79 °C | Cc1cc(C)cc(OC(=O)C(Cl)c2ccccc2)c1 (centres undefined) |
| > 55 °C | CCCCc1nn(-c2cc([N+](=O)[O-])ccc2Cl)c(C(=O)O)c1Cc1ccc(Br)cc1F |
| 146 to 148 °C | CN1C(=O)C(C(=O)Nc2ccc(C(F)(F)F)cc2)S(=O)(=O)c2cc(F)ccc21 (centres undefined) |
| 149 to 151 °C | COc1ccc(Cl)n2nc(S(=O)(=O)Cl)nc12 |
| 121 °C | Cc1cccc(C(O)CNC2=NCCN2)c1 (centres undefined) |
| 162 to 164 °C | N#Cc1ccc2[nH]cc(C3CCC(=O)CC3)c2c1 |
| 102 to 104 °C | CCOC(=O)C1C(=O)C(C(=O)c2ccc(Cl)cc2[N+](=O)[O-])C(=O)CC1CC(C)SCC (centres undefined) |
| 173 to 174 °C | Cc1nc(-n2cc(Cl)ccc2=O)sc1C(=O)NCc1ccccc1 |
| 47 to 48 °C | CC(C)(O)Cc1cccc2ccccc12 |
| 135 to 137 °C | O=C(O)CCCOc1ccc(-c2ccc(-c3c(Cc4ccccc4)sc4ccccc34)cc2)cc1Br |

| melting point | SMILES |
| --- | --- |
| 141 to 143 °C | COc1ccc(-c2cc(F)cc3c2OC(CN)C3)c(OC)c1 (centres undefined) |
| 64 to 65 °C | CCOC(=O)C(=O)N(c1ccccc1N)C(C)(C)C |
| 179 to 181 °C | CC(Cl)(Cl)C(NC(=O)c1cccc(Cl)c1)NC(=NC#N)Nc1cccc(F)c1 (centres undefined) |
| 140 to 141 °C | CC(C)(C)OC(=O)CON1C(=O)c2ccccc2C1=O |
| 87 to 88 °C | c1ccc(NCP(CNc2ccccc2)CNc2ccccc2)cc1 |
| 38 to 40 °C | CCCCCCCCCCCCCCCCCC(=O)N1CCCCc2nc(-c3ccccc3)sc21 |
| 208 to 209 °C | COc1nc(C)cnc1NS(=O)(=O)c1cccnc1-c1ccc(NC(C)=O)cc1 |
| 189 to 191 °C | CC(C)(C)NCC(O)COc1cccc(NC(N)=O)c1C(N)=O (centres undefined) |
| 143 °C | COc1cc2ncn(CCCCl)c(=O)c2cc1OC |
| 326 °C | O=C1Nc2ccc(I)cc2C1=NNC(=O)c1ccc(I)cc1 |
| 66 to 67.5 °C | CCCCCCCCCCc1c(C)nc2ccccn2c1=O |
| 149 to 151 °C | Nc1nnc(C(F)(F)Oc2ccccc2)s1 |
| 115 to 117 °C | COc1ccc2c(c1)C(O)C(Cc1ccc(OC)c(OC3CC4CCC3C4)c1)CO2 (centres undefined) |
| 73 °C | COC(=O)[C@H]1CN(CCO)CC[C@H]1NC(=O)OCc1ccccc1 |
| 126 to 127 °C | O=C(O)CCCNc1cc(Oc2ccc(C(F)(F)F)cc2Cl)ccc1[N+](=O)[O-] |
| 39 to 41 °C | COC(=O)CCCCNC(=O)C(CS)Cc1ccccc1 (centres undefined) |
| 62 to 64 °C | COc1ccc(/C=C/c2cc(Cl)cc(Cl)c2)cc1 |
| 71.5 to 72.5 °C | O=C(O)Cc1ccc(CC2CCCCC2=O)cc1 (centres undefined) |
| 159 to 161 °C | Clc1ccc(Sc2cc(NCCN3CCOCC3)nc(-c3ccc(Cl)cc3)n2)cc1 |
| 225 to 226 °C | CC(C)c1cc2c(=O)n3cc(C#N)ccc3nc2s1 |
| 202 to 204 °C | CC(O)(c1nc2ccc(S(=O)(=O)c3ccccc3)cc2c(=O)[nH]1)C(F)(F)F (centres undefined) |
| 65 to 67 °C | O=C1OC(=O)c2c1cccc2C(F)(F)F |
| 237 to 239 °C | O=C(NC(Cc1ccc(OCc2ccccc2)cc1)C(=O)O)c1cc2ccc(-c3ccc(Cl)cc3)cc2s1 (centres undefined) |
| 150 to 153 °C | CC(=O)Nc1nc2ccccc2n1-c1nc(N2CCOCC2)nc(N2CCOCC2)n1 |
| 195 to 197 °C | O=c1ccc(-c2c(-c3ccccc3)nn3ccccc23)nn1[C@@H]1CCCC[C@@H]1O (relative stereo) |
